Our source for the melting point values is a melting point compilation (Tetko et al.; mined from patent text by program, amines drawn as free bases though some values may be those of a salt).

In general, melting point refers to the temperature of the solid-liquid transition.

`c1ccc2oc3cnnc-3cc2c1` showed a melting point of 215 °C.

Regarding `CCOC(=O)CN1C(=O)COc2cc(N)ccc21`, the melting point was 136 to 137 °C.

`O=C(O)c1cccc(-c2nc(-c3ccccc3F)no2)c1` returned a melting point of 233 to 234 °C.

Turning to `O=C1NCCc2ccc(OCCCN3CCN(c4cccc(Cl)c4Cl)CC3)cc21`, the melting point lay in the range of 162 to 164 °C.

`CC(O)(c1ccccc1)c1cc(Cl)ccc1N` (centres undefined) yielded a melting point of 93 to 94 °C.

`CC(C)(C)OC(=O)NCCNC(=O)c1ncsc1Br`: the melting point was 108 to 111 °C.

For the compound `COc1ccc(CN(C)CCCOc2ccc(NC(=O)c3cccc4c(=O)c5ccccc5[nH]c34)cc2)cc1OC`, the melting point was found to be 130 °C.

Turning to `COCCCCC1(O)C2=NCCCN2c2ccccc21` (centres undefined), the melting point was in the range of 128 to 139 °C.

`CN1CN(C(=O)c2c(F)cccc2F)C(=O)N(c2ccc(S(=O)C(F)F)cc2F)C1` (centres undefined): the melting point fell in the range of 50 to 55 °C.

For the compound `CCCCCCCCCCCCC(=O)Nc1ccn(C2OC(CO)C(O)C2O)c(=O)n1` (centres undefined), the melting point is 143 to 146 °C.

The compound `CC(=O)Oc1ccc(N2C(=O)CC(=O)N2c2ccccc2)cc1` registered a melting point of 132 to 134 °C.

`Cc1c(Cc2ccc(Cl)cc2)sc2nc(N)[nH]c(=O)c12` showed a melting point of 300 to 320 °C.

`COC(C)CN(C)CC=CC(=O)Nc1cc2c(Nc3ccc(F)c(Cl)c3)ncnc2cc1OCC1CC1` (centres undefined) had a melting point of 123 to 125 °C.

With `CCOC(=O)C1(C(=O)OCC)C(CC)C(=O)N1Cc1ccc(OC)cc1OC` (centres undefined), the melting point came to 69 °C.

Compound `CC(=NOCc1ccccc1)c1cccc(S(N)(=O)=O)c1` gave a melting point of 136 to 139 °C.

`CCNC(=O)NCc1ccc(/C=C/C(c2cc(Cl)c(Cl)c(Cl)c2)C(F)(F)F)c2ccccc12` (centres undefined) displayed a melting point of 84 to 87 °C.

In turn, `COCC1=C(c2ccccc2)C(=O)N(C(C)(C)C(=O)OC(C)(C)C)CO1` had a melting point of 65 to 67 °C.

Take `COC(=O)Cc1ccc(CNC(=O)C2Cc3ccccc3N2S(=O)(=O)c2ccc(-c3cccc(C)c3)cc2)cc1` (centres undefined): the melting point is 66 to 68 °C.

For `COC(=O)c1nc(-c2cc(N)c(Cl)cc2F)cc(N)c1Cl`, the melting point was 99 to 101 °C.

In turn, `COc1cc2c(cc1OC)CCN(C(=O)N(C)O)CC2` came in with a melting point of 95 to 96 °C.

In turn, `COc1cc(OC)c2c(=O)[nH]c(-c3ccc(OCCNC(C)C)c(-c4ccc(S(C)=O)cc4)n3)nc2c1` (centres undefined) yielded a melting point of 93 to 95 °C.

Turning to `Cn1cc(C2=C(c3cn(C)c4cc([N+](=O)[O-])ccc34)C(=O)N(COP(=O)(OCc3ccccc3)OCc3ccccc3)C2=O)c2ccccc21`, the melting point fell in the range of 105 to 109 °C.

`Cc1c[nH]c2c(Sc3nc4cc(Cl)ccc4[nH]3)ccc(N)c12` showed a melting point of 229 to 230 °C.

Regarding `CCNC(=O)[C@@H]1Cc2ccccc2N1`, the melting point lay within 92 to 95 °C.

Consider `CCOC(=O)CCC1CCC(=O)N1` (centres undefined), for which the melting point lay within 60 to 61 °C.

On to `N=C(NCCNC(c1ccccc1)(c1ccccc1)c1ccccc1)N[N+](=O)[O-]`, for which the melting point was in the range of 217 to 219 °C.

In the case of `O=C(O)c1cccnc1NCc1ccc(Cl)cc1`, the melting point is 240 to 242 °C.

In turn, `CCCN(SCNC(=O)ON=C(C)SC)P(=S)(OCC)OCC` returned a melting point of 68 to 69 °C.

`CC1=CC(c2cccc(Cl)c2Cl)C(c2nnco2)=C(C)N1` (centres undefined) displayed a melting point of 235 °C.

The compound `CCOC(=O)c1ccc(-c2cc3c(Nc4ccc(F)c(Cl)c4)ncnc3[nH]2)cc1` showed a melting point greater than 300 °C.

As to `CC(C)(C)OC(=O)N[C@H]1CCN(C(=O)OCc2ccccc2)C1`, the melting point lay within 124 to 125 °C.

`CCNCC1CN(c2c(F)cc3c(=O)c(C(=O)O)cn(C4CC4)c3c2F)C1` yielded a melting point of 237 to 242 °C.

`COc1ccc2nc([C@H](CC(C)C)NC(=O)OCc3ccccc3)[nH]c2c1`: the melting point was 73 to 77 °C.

`COc1ccc(NC=C(C#N)C(=O)Nc2cc(OC)c(Cl)cc2Cl)cc1F` yielded a melting point of 275 to 276 °C.

Take `N#Cc1c(N2CCc3ccccc3CC2)nc(NCCCOc2ccccc2)[nH]c1=O`: the melting point lay within 175 to 180 °C.

The compound `CCCCCCCCOc1ccc(-c2ncc(O)cn2)c(F)c1F` had a melting point of 84 to 85 °C.

Compound `CCCCNS(=O)(=O)c1ccc(S(N)(=O)=O)cc1` had a melting point of 164 to 167 °C.

Compound `CCC(CC)c1ccc(Cl)c2nc3n(c12)CCCCN3c1ncc([N+](=O)[O-])cc1C` showed a melting point of 204 to 205 °C.

As for `O=C1OC(O)c2cccc(Cl)c21` (centres undefined), the melting point lay in the range of 140 to 145 °C.

In turn, `CCN1c2ncc(/C=C/c3ccncc3)cc2C(=O)N(C)c2cccnc21` registered a melting point of 150 °C.

Turning to `COc1cc(C(=O)Nc2cc(Oc3ccc4nc(NC(=O)C5CC5)cn4n3)ccc2C)n(C)n1`, the melting point was determined as 224 °C.

`N=C(N)Nc1nc2cc(Cl)c(Cl)cc2[nH]1` registered a melting point greater than 260 °C.

Compound `COC(=O)c1c2nc3ccccc3c-2[nH]c2ccccc12` displayed a melting point of 152 to 154 °C.

Take `COc1ccc(CNc2nc(N3CCn4ccnc4C3)ncc2C(=O)NCC2CN(C)CCO2)cc1Cl` (centres undefined): the melting point is 132 to 134 °C.

As to `CC(=O)Nn1cc(-c2cccnc2)nc1Cl`, the melting point lay in the range of 129 to 131 °C.

`N#CCC(O)(c1ccc(-c2ccccc2)cc1)c1ccc(-c2ccccc2)cc1`: the melting point was 168 to 170 °C.

`CCCNC(=O)[C@H](Cc1ccccc1)NC(=O)CNC(=O)OC(C)(C)C`: the melting point was 166 to 168 °C.

`O=C1CC(c2sccc2Cl)=Nc2ccc(-c3ccc(F)cc3)cc2N1` showed a melting point of 255 to 256 °C.

Regarding `COc1ccc(NC(=O)Nc2c(Cl)cncc2Cl)cc1OC1CCCC1`, the melting point is 183 to 184 °C.

For the compound `COc1ccc2c(c1)C(=O)c1c-2c(Nc2ccc(C(C)=O)cc2)nc2ccccc12`, the melting point fell in the range of 251 to 252 °C.

Consider `COC(=O)NN=Cc1ccccc1N`, for which the melting point fell in the range of 149 to 150 °C.

In turn, `CNC(=O)C1=CC(COC)(COC)Oc2ccc([N+](=O)[O-])cc21` had a melting point of 147 to 149 °C.

As for `CN1CCCCc2cc(Nc3ncc(Cl)c(N[C@@H]4CCCC[C@H]4NS(C)(=O)=O)n3)ccc21`, the melting point lay within 102 to 104 °C.

Consider `[N-]=[N+]=NCc1n[nH]nc1-c1ccc(Cl)cc1C(=O)c1ccccc1`, for which the melting point is 128 to 131 °C.

In turn, `O=CNCc1c(Cl)ccc2cc(Cl)cnc12` had a melting point of 110 °C.

For `OCCCCCc1ccc2ccccc2c1O`, the melting point is 43 to 46 °C.

Take `COc1cc2c(cc1C(F)(F)F)N(C(=O)Nc1csc(-c3cccnc3)n1)CC2`: the melting point was greater than 200 °C.

The compound `CCC1(CC)CN(c2ncc(C(=O)N(C)c3cccc(C(F)(F)F)c3)c(N)n2)C(=O)N1` showed a melting point of 185 to 187 °C.

Regarding `Cn1nnnc1-c1nccn1Cc1ccccc1`, the melting point was 110 to 111 °C.

`CCOC(=O)C=Nc1c(Cl)cccc1C(=O)O`: the melting point was determined as 175 °C.

`O=C1CCCC(=O)C1=C(S)NCc1ccccc1` returned a melting point of 47 to 48 °C.

`Nc1cc(Cl)cc(Cl)c1C(=O)NCC1CCCCC1` came in with a melting point of 168 to 171 °C.

Compound `CCn1nc(-c2ncc(NCc3ccc(OC)cc3)nc2-c2ccccc2)ccc1=O` yielded a melting point of 148 to 150 °C.

Compound `COc1ccc(CC2CNC(=O)N2)cc1OCc1ccccc1` (centres undefined) showed a melting point of 154 to 157 °C.
